Assay results reported in US8598119B2, “Methods and compositions for sleep disorders and other disorders” (priority 2008, dated 2013).
“Also recorded” adds a separate entry of the source.

Tests used:
[1] = system: socially-defeated mice; settings: treated daily for 30 days; cited from earlier work
[2] = target: Striatal D2 receptor (Homo sapiens (Human), UniProt P14416); assay: Striatal D2 receptor occupancy by positron emission tomography in healthy volunteers; assay type: in vivo; settings: PET
[3] = system: patients with sleep maintenance insomnia (SMI); assay: Clinical trial, overnight PSG in patients with sleep maintenance insomnia; assay type: in vivo, human; settings: for SWS, Mean Change from Baseline / Total Sleep Time, Mean Change from Baseline / Total Time Awake, Mean Change from Baseline / WASO, Mean Change from Baseline: n = 18, PSG
[4] = target: SERT (rat forebrain synaptosomal membrane) (Rattus norvegicus (Rat), UniProt P31652); assay: Transporter SERT radioligand binding assay in rat forebrain, [3H]-N-Methyl-Citalopram; settings: Table 2
[5] = target: human 5-HT2C receptors (Homo sapiens (Human), UniProt P28335, I156V/I160V); assay: biochemical
[6] = target: H1 receptors (Homo sapiens (Human), UniProt P35367); assay: biochemical
[7] = system: unilateral 6-OHDA-lesioned mice; assay: L-DOPA induced dyskinesia (AIMS) in unilateral 6-OHDA-lesioned mice; assay type: in vivo, mouse
Source text: Day 1-Day 9: Treatment with L-DOPA/benserazide
Day 10: Treatment with L-DOPA/benserazide+Evaluation of AIMs (dyskinesia)
Experiment 1 (Chronic): Development of Dyskinesia
Day 1-Day 10: Treatment with L-DOPA/benserazide plus ITI-007 ITI-007PD.
Day 11: Treatment with L-DOPA/benserazide+Evaluation of AIMs (dyskinesia)
Experiment 2 (Acute): Expression of dyskinesia
Day 1-Day 10: Treatment with L-DOPA/benserazide
Day 11: Treatment with L-DOPA/benserazide plus ITI-007+Evaluation of AIMs (dyskinesia)
The compound effectively reduces (by ˜50%) the development of dyskinetic behaviors in PD mice (i.e., Chronic treatment group). It has a less robust but still significant effect (by ˜25% reduction) on established dyskinetic behaviors (i.e., Acute treatment group). […] In addition to reducing L-DOPA-Induced Dyskinesias, as described above, the Compounds of Formula I will also reduce PD psychosis and depression, improve poor night time sleep and reduce excessive daytime sleepiness.

[8] = system: socially-defeated mice; assay: Social defeat (resident-intruder) mouse model for depression; assay type: in vivo
[9] = 1, 5, 10 mg single doses, in words

Chain of Striatal D2 receptor (P14416 whole entry): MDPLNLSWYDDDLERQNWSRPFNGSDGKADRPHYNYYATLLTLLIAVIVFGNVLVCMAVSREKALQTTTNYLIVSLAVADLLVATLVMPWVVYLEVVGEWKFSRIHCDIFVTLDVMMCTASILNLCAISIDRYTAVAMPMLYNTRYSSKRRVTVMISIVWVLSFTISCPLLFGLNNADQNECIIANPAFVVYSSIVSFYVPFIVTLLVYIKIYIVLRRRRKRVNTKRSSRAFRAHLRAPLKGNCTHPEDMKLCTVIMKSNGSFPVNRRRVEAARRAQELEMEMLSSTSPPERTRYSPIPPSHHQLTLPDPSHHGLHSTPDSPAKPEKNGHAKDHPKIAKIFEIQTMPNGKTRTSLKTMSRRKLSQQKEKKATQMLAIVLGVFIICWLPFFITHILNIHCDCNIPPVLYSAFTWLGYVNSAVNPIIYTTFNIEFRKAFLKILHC
Chain of SERT (rat forebrain synaptosomal membrane) (P31652 whole entry): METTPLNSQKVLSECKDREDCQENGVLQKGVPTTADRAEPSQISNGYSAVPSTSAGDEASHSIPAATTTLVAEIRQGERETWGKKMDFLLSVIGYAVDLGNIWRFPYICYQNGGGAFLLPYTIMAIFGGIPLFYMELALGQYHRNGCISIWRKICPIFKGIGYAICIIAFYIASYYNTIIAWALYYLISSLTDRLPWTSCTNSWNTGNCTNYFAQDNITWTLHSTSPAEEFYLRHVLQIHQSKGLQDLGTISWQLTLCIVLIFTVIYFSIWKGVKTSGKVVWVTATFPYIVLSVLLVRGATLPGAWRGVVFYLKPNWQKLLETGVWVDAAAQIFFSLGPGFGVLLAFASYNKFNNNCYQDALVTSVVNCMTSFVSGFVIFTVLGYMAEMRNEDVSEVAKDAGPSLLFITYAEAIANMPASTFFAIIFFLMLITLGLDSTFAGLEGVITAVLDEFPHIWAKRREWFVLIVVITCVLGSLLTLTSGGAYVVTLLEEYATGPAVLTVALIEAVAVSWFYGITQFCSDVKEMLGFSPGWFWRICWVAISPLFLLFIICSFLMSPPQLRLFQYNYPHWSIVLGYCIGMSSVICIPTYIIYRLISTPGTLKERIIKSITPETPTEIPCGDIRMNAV
Chain of human 5-HT2C receptors (P28335 33-458 I156V/I160V): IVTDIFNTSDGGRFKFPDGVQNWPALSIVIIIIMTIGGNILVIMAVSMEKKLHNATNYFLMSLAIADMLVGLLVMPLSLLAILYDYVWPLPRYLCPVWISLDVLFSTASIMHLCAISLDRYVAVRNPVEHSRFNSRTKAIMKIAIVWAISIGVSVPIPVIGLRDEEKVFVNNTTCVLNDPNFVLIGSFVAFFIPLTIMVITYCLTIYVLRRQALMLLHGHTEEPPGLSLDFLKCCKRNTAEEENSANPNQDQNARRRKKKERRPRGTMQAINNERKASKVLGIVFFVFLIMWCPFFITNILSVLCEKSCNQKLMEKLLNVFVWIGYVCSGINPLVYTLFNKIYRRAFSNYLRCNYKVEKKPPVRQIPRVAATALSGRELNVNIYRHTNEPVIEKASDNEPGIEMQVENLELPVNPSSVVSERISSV
Chain of H1 receptors (P35367 whole entry): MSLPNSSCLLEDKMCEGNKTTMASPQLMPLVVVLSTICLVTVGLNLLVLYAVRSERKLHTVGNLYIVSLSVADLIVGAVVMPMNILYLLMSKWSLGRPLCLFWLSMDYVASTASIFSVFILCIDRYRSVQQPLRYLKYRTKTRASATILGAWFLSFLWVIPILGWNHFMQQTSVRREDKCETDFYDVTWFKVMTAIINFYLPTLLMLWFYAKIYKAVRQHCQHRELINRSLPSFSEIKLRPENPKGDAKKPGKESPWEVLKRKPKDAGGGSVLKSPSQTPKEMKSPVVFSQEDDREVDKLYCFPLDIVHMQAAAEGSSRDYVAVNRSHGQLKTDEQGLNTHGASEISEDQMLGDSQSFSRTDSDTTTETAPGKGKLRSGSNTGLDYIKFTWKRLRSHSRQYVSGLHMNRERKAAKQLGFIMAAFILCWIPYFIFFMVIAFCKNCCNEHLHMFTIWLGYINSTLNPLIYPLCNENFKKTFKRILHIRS

CN(C)CCCN1c2ccccc2CCc2ccccc21 [IMI, imipramine]
social interaction behavior of socially defeated mice after chronic anti-depressant [1]: improved social interaction behavior

CN1CCN2c3c(cccc31)[C@@H]1CN(CCCC(=O)c3ccc(F)cc3)CC[C@@H]12 [Compound A, 1-(4-Fluoro-phenyl)-4-((6bR,10aS)-3-methyl-2,3,6b,9,10,10a-hexahydro-1H,7H-pyrido[3′,4′,4,5]pyrrolo[1,2,3-de]quinoxalin-8-yl)-butan-1-one]
% Striatal D2 Occupancy ([2]; 20 mg): ~20%
% Striatal D2 Occupancy ([2]; 30 mg): ~32%
SWS, Mean Change from Baseline ([3]; 1 mg single dose): 0.47 min
Total Sleep Time, Mean Change from Baseline ([3]; 1 mg single dose): 4.17 min
Total Time Awake, Mean Change from Baseline ([3]; 1 mg single dose): -4.08 min
WASO, Mean Change from Baseline ([3]; 1 mg single dose): -12.69 min
SWS, Mean Change from Baseline ([3]; 5 mg single dose): 5.53 min
Total Sleep Time, Mean Change from Baseline ([3]; 5 mg single dose): 0.56 min
Total Time Awake, Mean Change from Baseline ([3]; 5 mg single dose): -1.42 min
WASO, Mean Change from Baseline ([3]; 5 mg single dose): -14.31 min
SWS, Mean Change from Baseline ([3]; 10 mg single dose): 8.94 min
Total Sleep Time, Mean Change from Baseline ([3]; 10 mg single dose): 27.61 min
Total Time Awake, Mean Change from Baseline ([3]; 10 mg single dose): -28.31 min
WASO, Mean Change from Baseline ([3]; 10 mg single dose): -33.22 min
effect on slow wave sleep (SWS) [3, 9]: increases SWS; also recorded: dose-dependently increase slow wave sleep
effect on wake time after sleep onset (WASO) [3, 9]: dose-dependently decreases WASO; also recorded: dose-dependently decreases wake after sleep onset
duration of REM ([3]; PSG): no change in duration of REM; also recorded: did not suppress REM sleep
latency to REM ([3]; PSG): no change on latency to REM
latency to fall asleep ([3]; PSG): does not impair latency to fall asleep
slow wave sleep by part of the night ([3]; first and second quarter of the night): increases slow wave sleep during the first half of the night
dose-related adverse events or changes in safety parameters ([3]; human, in vivo): no dose-related adverse events or changes in safety parameters
early-morning rebound insomnia ([3]; human, in vivo): no early-morning rebound insomnia
serious adverse events ([3]; human, in vivo): no serious adverse events
total sleep time ([3]; in words): increase total sleep time
cognitive function the morning after PSG (DSST, WPAT, Leeds Psychomotor Test) ([3]; next day): does not impair cognitive function; also recorded: do not impair next-day cognitive function
sleep architecture ([3]; over the course of the night): preserves normal sleep architecture over the course of the night
safety and tolerability ([3]; patients with sleep maintenance insomnia): safe and well tolerated; also recorded: safe and well-tolerated
stage 2 sleep by part of the night ([3]; third and fourth quarter of the night): increases stage 2 sleep during the second half of the night
Ki [4]: 46 nM
Ki [5]: 173 nM
Ki [6]: > 100 nM
reduction of development of dyskinetic behaviors (Chronic treatment group) ([7]; 0.3 mg/kg IP co-administered with levodopa 10 mg/kg IP, chronic): ~50%
reduction of established dyskinetic behaviors (Acute treatment group) ([7]; 0.3 mg/kg IP with levodopa 10 mg/kg IP, acute): ~25%
time in the Interaction Zone, socially-defeated mice ([8]; 1 mg/kg IP once daily for 29 d, tested day 30, versus socially-defeated mice receiving vehicle): almost twice as much time in the Interaction Zone
general health and weight gain, normal mice ([8]; normal mice treated once daily for 30 d, 1 mg/kg IP): healthy and normal-appearing and gained weight normally
time in the Interaction Zone, normal mice ([8]; normal mice, 1 mg/kg IP once daily, versus vehicle): comparable time in the Interaction Zone as mice receiving the vehicle injection

CNCCC(Oc1ccc(C(F)(F)F)cc1)c1ccccc1 (centres unmarked) [fluoxetine]
social interaction behavior of socially defeated mice after chronic anti-depressant [1]: improved social interaction behavior
